Assay [1] has as its system kinases present in the cellular extracts (PBMC). Put plainly: Calcineurin kinetic experiments in PBMC cytosolic proteins in the presence or absence of kinase inhibitors (LC-MS/MS of DP-RII peptide). The following applies: 5 μg PBMC cytosolic proteins from healthy volunteers, FIG. 1; for production of DP-RII peptide vs control: 37° C., up to 120 min, 500 nM okadaic acid, ANOVA test. In kind it is biochemical, human. How it is done:
FIG. 1: Calcineurin kinetic experiments were performed in the presence or absence of two different kinase inhibitors. The production of DP-RII peptide was quantified using LC-MS/MS analysis.
PBMCs obtained from either healthy volunteers or transplant patients were resuspended in a buffer containing 50 mM Tris, pH=7.0, 0.1 mM EGTA, 0.05 mM dithiothreitol, 0.1% tween 20, 0.3 mg/mL albumin, 1 mM MnCl2, 1 mM CaCl2 and protease inhibitors. These cellular extracts were sonicated on ice, and centrifuged for 30 minutes at 10.000 g at 4° C. The supernatants corresponding primarily to the cytosolic fractions were recovered and their protein content was determined. These cellular extracts can be stored at −80° C. for later measurement of CN activity.
One to 5 μg of proteins obtained from PBMC, prepared as described above, were used for measuring calcineurin activity in a reaction mixture containing 500 nM okadaic acid, 1 mg/L internal standard, 20 μM H89, 8 mg/L phosphorylated RII peptide and 0.03 units calmodulin in 15 μL 50 mM Tris-HCl, pH=7.0. Enzymatic reaction was carried out at 37° C. for 30 min and then, the reaction tubes were cooled on ice and the enzymatic reaction was stopped by addition of 15 μL of a solution of 5% trichloroacetic acid. After centrifugation for 5 minutes at 12.000 g at 4° C., supernatants were transferred to […] into 1.5 mL glass autoinjector vials and kept at 4° C. in autosampler before injection. […]
The inventors assessed the kinetics of calcineurin in the presence or not of 2 different kinase inhibitors: H89, an unspecific inhibitor and Rp-adenosine 3′,5′-cyclic monophosphorothioate, a specific inhibitor of PKA.
A first set of experiments was performed using 5 μg of PBMC cytosolic proteins issued from healthy volunteers. […] The enzymatic reactions were stopped at the indicated time points (up to 120 min) and peptide amounts were quantified by LC-MS/MS.

For assay [2], the target named is protein phosphatase 1 (PP-1). The following applies: cited from earlier work.
Assay [3] has as its target protein phosphatase 2A (PP-2A). As to conditions: cited from earlier work.
Assay [4] deals with protein phosphatase 2B (PP-2B). The following applies: cited from earlier work.

SMILES strings stand for the structures.

These results are taken from patent US9290792B2, “Method for measuring calcineurin activity” (UNIVERSITE PARIS DESCARTES, priority 2012, dated 2016).

In general, IC50 refers to the concentration at which inhibition is half-maximal.

As for `O=S(=O)(NCCNC/C=C/c1ccc(Br)cc1)c1cccc2cnccc12` [H89], the “production of DP-RII peptide vs control” value in assay [1] is “significantly higher”. In addition, the “inhibition obtained vs that obtained with the PKA specific inhibitor” value in assay [1] (p=0.0163) was “significantly higher”.

Turning to `Nc1ncnc2c1ncn2[C@@H]1O[C@@H]2COP(O)(=S)O[C@H]2[C@H]1O` (stereo partly drawn) [PKA specific inhibitor, Rp-adenosine 3′,5′-cyclic monophosphorothioate], in assay [1], the “production of DP-RII peptide vs control” value was “significantly higher”.

With `C=C1[C@@H](O)[C@@H]2O[C@]3(CC[C@H](/C=C/[C@@H](C)[C@@H]4CC(C)=C[C@@]5(O[C@H](C[C@@](C)(O)C(=O)O)CC[C@H]5O)O4)O3)CC[C@H]2O[C@@H]1[C@@H](O)C[C@H](C)[C@H]1O[C@@]2(CCCCO2)CC[C@H]1C` [Okadaic acid, 9,10-Deepithio-9,10-didehydroacanthifolicin], the IC50 in assay [2] was 20 to 100 nM; in assay [3], 0.1 to 1 nM; in assay [4], more than 5000 nM.
